Measured values from the NIST ThermoML archive (doi:10.1016/j.fluid.2015.09.050).
Numbers after ± are expanded uncertainties.

Details: Liquid, pendant drop method

C [methane] + O
interfacial tension (311 K, 3390 kPa): 66.03 ± 7.8 mN/m | interfacial tension (311 K, 7540 kPa): 59.95 ± 7.1 mN/m | interfacial tension (311 K, 14380 kPa): 57.94 ± 7 mN/m | interfacial tension (311 K, 28210 kPa): 52.29 ± 6.5 mN/m | interfacial tension (311 K, 44730 kPa): 51.43 ± 6.6 mN/m | interfacial tension (311 K, 61300 kPa): 49.28 ± 6.5 mN/m | interfacial tension (311 K, 81600 kPa): 50.39 ± 6.7 mN/m | interfacial tension (373.2 K, 3650 kPa): 54.76 ± 6.5 mN/m | interfacial tension (373.2 K, 10070 kPa): 50.64 ± 6 mN/m | interfacial tension (373.2 K, 21140 kPa): 48.29 ± 5.8 mN/m | interfacial tension (373.2 K, 30540 kPa): 45.02 ± 5.5 mN/m | interfacial tension (373.2 K, 51020 kPa): 42.2 ± 5.4 mN/m | interfacial tension (373.2 K, 60310 kPa): 41.61 ± 5.4 mN/m | interfacial tension (373.2 K, 71050 kPa): 41.92 ± 5.5 mN/m | interfacial tension (373.2 K, 82760 kPa): 41.93 ± 5.5 mN/m | interfacial tension (423.2 K, 2740 kPa): 49.23 ± 5.8 mN/m | interfacial tension (423.2 K, 7290 kPa): 46.41 ± 5.5 mN/m | interfacial tension (423.2 K, 17170 kPa): 42.69 ± 5.1 mN/m | interfacial tension (423.2 K, 27790 kPa): 40.72 ± 5 mN/m | interfacial tension (423.2 K, 38470 kPa): 38.35 ± 4.7 mN/m | interfacial tension (423.2 K, 48440 kPa): 39.43 ± 5 mN/m | interfacial tension (423.2 K, 62280 kPa): 38.6 ± 4.9 mN/m | interfacial tension (423.2 K, 75910 kPa): 39.19 ± 5.1 mN/m | interfacial tension (423.2 K, 89770 kPa): 38.67 ± 5.1 mN/m | interfacial tension (473.2 K, 2410 kPa): 40.35 ± 4.8 mN/m | interfacial tension (473.2 K, 14090 kPa): 34.86 ± 4.2 mN/m | interfacial tension (473.2 K, 21220 kPa): 34.2 ± 4.1 mN/m | interfacial tension (473.2 K, 34790 kPa): 32.44 ± 4 mN/m | interfacial tension (473.2 K, 51540 kPa): 30.53 ± 3.8 mN/m | interfacial tension (473.2 K, 70120 kPa): 31.46 ± 4 mN/m | interfacial tension (473.2 K, 83440 kPa): 30.74 ± 4 mN/m
